Results reported in patent publication US12077503B2, “Substituted cyclic amides and their use as herbicides” (FMC CORPORATION, priority 2015, dated 2024).

Columns and labels:
Format in all cases: in vivo
[1] = test system: rice (Oryra sativa); assay: Test B flooded paddy test; conditions: Flood, 250 g ai/ha; 0 to 100 scale where 0 is no effect and 100 is complete control; 13 to 15 d
In short: (§1)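 Visual ratings (0 none to 100 complete control) are relative to untreated plants, taken 13–15 d after treatment in a greenhouse. Test material went straight into floodwater standing 3 cm above the soil, kept constant, on plants at the 2-leaf stage.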

[2] = test system: barnyardgrass (Echinochloa crus-galli); assay: Test B flooded paddy test; conditions: Flood, 250 g ai/ha; 0 to 100 scale where 0 is no effect and 100 is complete control; 13 to 15 d
In short: as §1

[3] = test system: sedge, umbrella (small-flower umbrella sedge, Cyperus difformis); assay: Test B flooded paddy test; conditions: Flood, 250 g ai/ha; 0 to 100 scale where 0 is no effect and 100 is complete control; 13 to 15 d
In short: as §1

[4] = test system: ducksalad (Heteranthera limosa); assay: Test B flooded paddy test; conditions: Flood, 250 g ai/ha; 0 to 100 scale where 0 is no effect and 100 is complete control; 13 to 15 d
In short: as §1

[5] = test system: barnyardgrass (Echinochloa crus-galli); assay: Test A preemergence; conditions: for Plant response rating, Barnyardgrass: 125 g ai/ha, preemergence, 0 to 100 scale (0 no effect, 100 complete control); for Barnyardgrass plant response rating (0 to 100 scale, 0 is no effect, 100 is complete control): Preemergence, 500 g ai/ha, visual injury approx. 10 d
In short: (§2)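 Treatment is preemergence as a directed soil spray after planting, or postemergence at the one- to two-leaf stage, with test chemical in a non-phytotoxic solvent mixture plus surfactant. Plants stay in the greenhouse about 10 d before visual injury scoring on a 0 to 100 scale versus untreated controls.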

[6] = test system: ragweed (common ragweed, Ambrosia elatior); assay: Test A preemergence; conditions: Preemergence; for Plant response rating, Ragweed: 125 g ai/ha, visual injury after approximately 10 d, 0 to 100 scale where 0 is no effect and 100 is complete control; for Ragweed plant response rating (0 to 100 scale, 0 is no effect, 100 is complete control): 500 g ai/ha, visual injury approx. 10 d
In short: as §2

[7] = test system: pigweed (Amaranthus retroflexus); assay: Test A preemergence; conditions: Preemergence; for Plant response rating, Pigweed: 125 g ai/ha, visual injury after approximately 10 d, 0 to 100 scale where 0 is no effect and 100 is complete control; for Pigweed plant response rating (0 to 100 scale, 0 is no effect, 100 is complete control): 500 g ai/ha, visual injury approx. 10 d
[8] = test system: Kochia (Kochia scoparia); assay: Test A preemergence; conditions: for Plant response rating, Kochia: 125 g ai/ha, preemergence, 0 to 100 scale (0 no effect, 100 complete control); for Kochia plant response rating (0 to 100 scale, 0 is no effect, 100 is complete control): Preemergence, 500 g ai/ha, visual injury approx. 10 d
In short: as §2

[9] = test system: ryegrass, Italian (Italian ryegrass, Lolium multiflorum); assay: Test A preemergence; conditions: Preemergence; for Plant response rating, Ryegrass, Italian: 125 g ai/ha, visual injury after approximately 10 d, 0 to 100 scale where 0 is no effect and 100 is complete control; for Ryegrass, Italian plant response rating (0 to 100 scale, 0 is no effect, 100 is complete control): 500 g ai/ha, visual injury approx. 10 d
In short: as §2

[10] = test system: giant foxtail (Setaria faberii); assay: Test A preemergence; conditions: for Plant response rating, Foxtail, Giant: 125 g ai/ha, preemergence, 0 to 100 scale (0 no effect, 100 complete control); for Foxtail, Giant plant response rating (0 to 100 scale, 0 is no effect, 100 is complete control): Preemergence, 500 g ai/ha, visual injury approx. 10 d
In short: as §2

[11] = test system: corn (Zea mays); assay: Test A postemergence; conditions: postemergence; for Corn plant response rating: 125 g ai/ha, visual injury rating on 0 to 100 scale (0 no effect, 100 complete control), approx. 10 d; for Plant response rating, Corn: 500 g ai/ha, 0 to 100 scale, 0 no effect, 100 complete control
In short: as §2

[12] = test system: Galium (catchweed bedstraw, Galium aparine); assay: Test A postemergence; conditions: for Galium plant response rating: 125 g ai/ha, postemergence, visual injury rating on 0 to 100 scale (0 no effect, 100 complete control), approx. 10 d; for Plant response rating, Galium: Postemergence, 500 g ai/ha, 0 to 100 scale where 0 is no effect and 100 is complete control
In short: as §2

[13] = test system: wheat (Triticum aestivum); assay: Test A postemergence; conditions: for Wheat plant response rating: 125 g ai/ha, postemergence, visual injury rating on 0 to 100 scale (0 no effect, 100 complete control), approx. 10 d; for Plant response rating, Wheat: Postemergence, 500 g ai/ha, 0 to 100 scale where 0 is no effect and 100 is complete control
In short: as §2

[14] = test system: barnyardgrass (Echinochloa crus-galli); assay: Test A postemergence; conditions: postemergence; for Barnyardgrass plant response rating: 125 g ai/ha, visual injury rating on 0 to 100 scale (0 no effect, 100 complete control), approx. 10 d; for Plant response rating, Barnyardgrass: 500 g ai/ha, 0 to 100 scale, 0 no effect, 100 complete control
In short: as §2

[15] = test system: ragweed (common ragweed, Ambrosia elatior); assay: Test A postemergence; conditions: for Ragweed plant response rating: 125 g ai/ha, postemergence, visual injury rating on 0 to 100 scale (0 no effect, 100 complete control), approx. 10 d; for Plant response rating, Ragweed: Postemergence, 500 g ai/ha, 0 to 100 scale where 0 is no effect and 100 is complete control
In short: as §2

[16] = test system: pigweed (Amaranthus retroflexus); assay: Test A postemergence; conditions: for Pigweed plant response rating: 125 g ai/ha, postemergence, visual injury rating on 0 to 100 scale (0 no effect, 100 complete control), approx. 10 d; for Plant response rating, Pigweed: Postemergence, 500 g ai/ha, 0 to 100 scale where 0 is no effect and 100 is complete control
In short: as §2

[17] = test system: Kochia (Kochia scoparia); assay: Test A postemergence; conditions: for Kochia plant response rating: 125 g ai/ha, postemergence, visual injury rating on 0 to 100 scale (0 no effect, 100 complete control), approx. 10 d; for Plant response rating, Kochia: Postemergence, 500 g ai/ha, 0 to 100 scale where 0 is no effect and 100 is complete control
In short: as §2

[18] = test system: blackgrass (Alopecurus myosuroides); assay: Test A postemergence; conditions: postemergence; for Blackgrass plant response rating: 125 g ai/ha, visual injury rating on 0 to 100 scale (0 no effect, 100 complete control), approx. 10 d; for Plant response rating, Blackgrass: 500 g ai/ha, 0 to 100 scale, 0 no effect, 100 complete control
In short: as §2

[19] = test system: ryegrass, Italian (Italian ryegrass, Lolium multiflorum); assay: Test A postemergence; conditions: for Ryegrass, Italian plant response rating: 125 g ai/ha, postemergence, visual injury rating on 0 to 100 scale (0 no effect, 100 complete control), approx. 10 d; for Plant response rating, Ryegrass, Italian: Postemergence, 500 g ai/ha, 0 to 100 scale where 0 is no effect and 100 is complete control
In short: as §2

[20] = test system: giant foxtail (Setaria faberii); assay: Test A postemergence; conditions: for Foxtail, Giant plant response rating: 125 g ai/ha, postemergence, visual injury rating on 0 to 100 scale (0 no effect, 100 complete control), approx. 10 d; for Plant response rating, Foxtail, Giant: Postemergence, 500 g ai/ha, 0 to 100 scale where 0 is no effect and 100 is complete control
In short: as §2

## CN1CC(c2ccccc2)C(C(=S)Nc2ccccc2F)C1=O (stereo not drawn) [Compound 471]
[1]
  Plant response rating, Rice: 0
[2]
  Plant response rating, Barnyardgrass: 0
[3]
  Plant response rating, Sedge, Umbrella: 0
[4]
  Plant response rating, Ducksalad: 70
[5]
  Plant response rating, Barnyardgrass: 70
  Barnyardgrass plant response rating (0 to 100 scale, 0 is no effect, 100 is complete control): 90
[6]
  Plant response rating, Ragweed: 0
  Ragweed plant response rating (0 to 100 scale, 0 is no effect, 100 is complete control): 0
[7]
  Plant response rating, Pigweed: 0
  Pigweed plant response rating (0 to 100 scale, 0 is no effect, 100 is complete control): 0
[8]
  Plant response rating, Kochia: 0
  Kochia plant response rating (0 to 100 scale, 0 is no effect, 100 is complete control): 0
[9]
  Plant response rating, Ryegrass, Italian: 0
  Ryegrass, Italian plant response rating (0 to 100 scale, 0 is no effect, 100 is complete control): 0
[10]
  Plant response rating, Foxtail, Giant: 90
  Foxtail, Giant plant response rating (0 to 100 scale, 0 is no effect, 100 is complete control): 90
[11]
  Corn plant response rating: 0
  Plant response rating, Corn: 0
[12]
  Galium plant response rating: 0
  Plant response rating, Galium: 0
[13]
  Wheat plant response rating: 0
  Plant response rating, Wheat: 0
[14]
  Barnyardgrass plant response rating: 50
  Plant response rating, Barnyardgrass: 70
[15]
  Ragweed plant response rating: 0
  Plant response rating, Ragweed: 0
[16]
  Pigweed plant response rating: 0
  Plant response rating, Pigweed: 0
[17]
  Kochia plant response rating: 0
  Plant response rating, Kochia: 0
[18]
  Blackgrass plant response rating: 0
  Plant response rating, Blackgrass: 0
[19]
  Ryegrass, Italian plant response rating: 0
  Plant response rating, Ryegrass, Italian: 0
[20]
  Foxtail, Giant plant response rating: 50
  Plant response rating, Foxtail, Giant: 70

## CN1CC(c2ccc(C(F)(F)F)cc2F)C(C(=O)Nc2ccccc2S(C)(=O)=O)C1=O (stereo not drawn) [Compound 473]
[1]
  Plant response rating, Rice: 20
[2]
  Plant response rating, Barnyardgrass: 40
[3]
  Plant response rating, Sedge, Umbrella: 0
[4]
  Plant response rating, Ducksalad: 75
[5]
  Plant response rating, Barnyardgrass: 80
  Barnyardgrass plant response rating (0 to 100 scale, 0 is no effect, 100 is complete control): 100
[6]
  Plant response rating, Ragweed: 20
  Ragweed plant response rating (0 to 100 scale, 0 is no effect, 100 is complete control): 70
[7]
  Plant response rating, Pigweed: 80
  Pigweed plant response rating (0 to 100 scale, 0 is no effect, 100 is complete control): 90
[8]
  Plant response rating, Kochia: 80
  Kochia plant response rating (0 to 100 scale, 0 is no effect, 100 is complete control): 80
[9]
  Plant response rating, Ryegrass, Italian: 0
  Ryegrass, Italian plant response rating (0 to 100 scale, 0 is no effect, 100 is complete control): 90
[10]
  Plant response rating, Foxtail, Giant: 90
  Foxtail, Giant plant response rating (0 to 100 scale, 0 is no effect, 100 is complete control): 100
[11]
  Corn plant response rating: 0
  Plant response rating, Corn: 40
[12]
  Galium plant response rating: 60
  Plant response rating, Galium: 60
[13]
  Wheat plant response rating: 0
  Plant response rating, Wheat: 40
[14]
  Barnyardgrass plant response rating: 90
  Plant response rating, Barnyardgrass: 90
[15]
  Ragweed plant response rating: 50
  Plant response rating, Ragweed: 50
[16]
  Pigweed plant response rating: 50
  Plant response rating, Pigweed: 90
[17]
  Kochia plant response rating: 40
  Plant response rating, Kochia: 80
[18]
  Blackgrass plant response rating: 40
  Plant response rating, Blackgrass: 60
[19]
  Ryegrass, Italian plant response rating: 0
  Plant response rating, Ryegrass, Italian: 40
[20]
  Foxtail, Giant plant response rating: 70
  Plant response rating, Foxtail, Giant: 90

## CC(C)=CCN1CC(c2cccc(C(F)(F)F)c2)C(C(=O)Nc2cccc(F)c2F)C1=O (stereo not drawn) [Compound 477]
[1]
  Plant response rating, Rice: 0
[2]
  Plant response rating, Barnyardgrass: 0
[3]
  Plant response rating, Sedge, Umbrella: 0
[4]
  Plant response rating, Ducksalad: 0
[5]
  Plant response rating, Barnyardgrass: 20
  Barnyardgrass plant response rating (0 to 100 scale, 0 is no effect, 100 is complete control): 90
[6]
  Plant response rating, Ragweed: 0
  Ragweed plant response rating (0 to 100 scale, 0 is no effect, 100 is complete control): 0
[7]
  Plant response rating, Pigweed: 0
  Pigweed plant response rating (0 to 100 scale, 0 is no effect, 100 is complete control): 0
[8]
  Plant response rating, Kochia: 0
  Kochia plant response rating (0 to 100 scale, 0 is no effect, 100 is complete control): 0
[9]
  Plant response rating, Ryegrass, Italian: 0
  Ryegrass, Italian plant response rating (0 to 100 scale, 0 is no effect, 100 is complete control): 0
[10]
  Plant response rating, Foxtail, Giant: 90
  Foxtail, Giant plant response rating (0 to 100 scale, 0 is no effect, 100 is complete control): 90
[11]
  Corn plant response rating: 0
  Plant response rating, Corn: 40
[12]
  Galium plant response rating: 0
  Plant response rating, Galium: 0
[13]
  Wheat plant response rating: 0
  Plant response rating, Wheat: 40
[14]
  Barnyardgrass plant response rating: 40
  Plant response rating, Barnyardgrass: 70
[15]
  Ragweed plant response rating: 0
  Plant response rating, Ragweed: 0
[16]
  Pigweed plant response rating: 0
  Plant response rating, Pigweed: 0
[17]
  Kochia plant response rating: 0
  Plant response rating, Kochia: 0
[18]
  Blackgrass plant response rating: 0
  Plant response rating, Blackgrass: 30
[19]
  Ryegrass, Italian plant response rating: 0
  Plant response rating, Ryegrass, Italian: 0
[20]
  Foxtail, Giant plant response rating: 40
  Plant response rating, Foxtail, Giant: 70
